Source: US10487093B2, “Heterocyclic compounds, in particular 2-oxo-4,4,5,5,6,6,7,7-octahydrobenzoxazole derivatives, and their use as antibacterial compounds” (priority 2016, dated 2019)
Values after ≈ are worked out from the molar mass of the structure shown.

Key:
E. coli MG1655 S83L = type: cell-based, Escherichia coli; conditions: compared to the isogenic parent strain E. coli MG1655; S83L mutation on DNA gyrase subunit GyrA
[1] = test system: human hepatic cell line (HepG2 ATCC HB-8065); assay: Human cell viability assay (CellTiter-Glo); conditions: Homo sapiens, HepG2, 24 h, read-out: IC50 (μg/mL) HepG2
[2] = test system: Enterobacter cloacae NCTC 13406; assay: MIC, broth microdilution (CLSI) versus planktonic bacteria; type: cell-based; conditions: NCTC13406; Enterobacter cloacae NCTC 13406; 16-20 h; mode of three independent experiments; read-out: MIC, Ecl NCTC 13406
E. coli NCTC 13476 = assay: as above; type: cell-based; conditions: NCTC13476; Escherichia coli NCTC 13476; 16-20 h; mode of three independent experiments; read-out: MIC, Ec NCTC 13476
[3] = test system: Escherichia coli ATCC 25922; assay: as above; type: cell-based; conditions: ATCC25922; Escherichia coli ATCC 25922; 16-20 h; mode of three independent experiments; read-out: MIC, Ec ATCC 25922
E. coli MG1655 D87G = type: cell-based, Escherichia coli; conditions: compared to the isogenic parent strain E. coli MG1655; D87G mutation on DNA gyrase subunit GyrA
E. coli ATCC BAA-2452 = assay: MIC, broth microdilution (CLSI) versus planktonic bacteria; type: cell-based; conditions: Escherichia coli ATCC BAA-2452; 16-20 h; mode of three independent experiments; read-out: MIC, Ec ATCC BAA 2452
[4] = test system: Pseudomonas aeruginosa ATCC 27853; assay: as above; type: cell-based; conditions: ATCC27853; Pseudomonas aeruginosa ATCC 27853; 16-20 h; mode of three independent experiments; read-out: MIC, Pa ATCC 27853
[5] = test system: Haemophilus influenzae ATCC 49247; assay: as above; type: cell-based; conditions: ATCC49247; Haemophilus influenzae ATCC 49247; 16-20 h; mode of three independent experiments; read-out: MIC, Hi ATCC 49247
E. coli MG1655 = assay: as above; type: cell-based, Escherichia coli; conditions: Escherichia coli, MG1655, read-out: MIC, Ec MG1655 WT
[6] = test system: Acinetobacter baumannii ATCC 19606; assay: as above; type: cell-based; conditions: ATCC19606; Acinetobacter baumannii ATCC 19606; 16-20 h; mode of three independent experiments; read-out: MIC, Ab ATCC 19606
[7] = test system: Acinetobacter baumannii NCTC 13420; assay: as above; type: cell-based; conditions: NCTC13420; Acinetobacter baumannii NCTC 13420; 16-20 h; mode of three independent experiments; read-out: MIC, Ab NCTC 13420

Row | SMILES | Fold increase in MIC, E. coli MG1655 S83L (E. coli MG1655 S83L) | IC50 [1] | MIC [2] | MIC (E. coli NCTC 13476) | MIC [3] | Fold increase in MIC, E. coli MG1655 D87G (E. coli MG1655 D87G) | MIC (E. coli ATCC BAA-2452) | MIC [4] | MIC [5] | MIC (E. coli MG1655) | MIC [6] | MIC [7]
1 | COc1ccc2ncc(=O)n(CCN[C@@H]3CC[C@@H]4[C@@H](C3)OC(=O)N4c3ccc4c(n3)NC(=O)CO4)c2c1 [Compound 21, 1-(2-{[(3aR,6R,7aR)-2-oxo-3-{3-oxo-2H,3H,4H-pyrido[3,2-b][1,4]oxazin-6-yl}-octahydro-1,3-benzoxazol-6-yl]amino}ethyl)-7-methoxy-1,2-dihydroquinoxalin-2-one] | 1 fold | > 100 µg/mL | < 1 µg/mL | < 1 µg/mL | < 1 µg/mL | 2 fold | < 1 µg/mL | < 1 µg/mL | < 1 µg/mL | < 1 µg/mL | < 1 µg/mL | < 1 µg/mL
2 | Cc1ccc2ncc(=O)n(CCN[C@H]3CC[C@H]4[C@@H](C3)OC(=O)N4c3ccc4c(n3)NC(=O)CO4)c2c1 [Compound 27, 1-(2-{[(3aS,6S,7aR)-2-oxo-3-{3-oxo-2H,3H,4H-pyrido[3,2-b][1,4]oxazin-6-yl}-octahydro-1,3-benzoxazol-6-yl]amino}ethyl)-7-methyl-1,2-dihydroquinoxalin-2-one] | – | > 100 µg/mL | 1 to 10 µg/mL (≈ 2.04 to 20.4 µM) | – | < 1 µg/mL | – | – | 1 to 10 µg/mL (≈ 2.04 to 20.4 µM) | 1 to 10 µg/mL (≈ 2.04 to 20.4 µM) | – | – | 1 to 10 µg/mL (≈ 2.04 to 20.4 µM)
